Counter-ions that a name gives are not always drawn. Like-named read-outs stand apart in the source and are kept apart here.
How the values were obtained:
[1] = system: AGE-BSA crosslinked to collagen; test: Cross-link Breaking Assay (sandwich enzyme immunoassay); assay type: biochemical; details: for Breaking Anti-AGE: anti-AGE antibody; for Breaking Anti-BSA: anti-BSA antibody
Experimental: The present invention also involves a novel sandwich enzyme immunoassay used to ascertain the ability of test compounds to “break” or reverse already formed advanced glycosylation endproducts by detecting the breaking of AGE (Advanced glycosylation endproduct) moieties from AGE-crosslinked protein. This assay comprises: • a) incubation of AGE-modified bovine serum albumin (AGE BSA) on collagen-coated wells of microtiter plates for a period of 2–6 hours' at a temperature of 37° C.; • b) washing of the wells with PBS-Tween; • c) application of the test compounds to the washed wells of step b; • d) incubation of the test compounds applied to the washed wells for an additional 12–24 hours at a temperature of about 37° C.; and • e) detection of the AGE-breaking using an antibody raised against AGE-ribonuclease or cross-link breaking with an antibody against BSA.
In order to ascertain the ability of the compounds of the instant invention to “break” or reverse already formed advanced glycosylation endproducts, a novel sandwich enzyme immunoassay was developed which detects breaking of AGE (Advanced glycosylation endproduct) moieties from AGE-crosslinked protein. The assay utilizes collagen-coated 96 well microtiter plates that are obtained commercially. […] Following an incubation period of 16 hours (37° C.) cross-link-breaking is detected using an antibody raised against AGE-ribonuclease or with an antibody against BSA. […] Details of the assay are as follows:
Methods Preparation of Solutions and Buffers • 1. AGE-BSA stock solutions were prepared as follows. Sodium phosphate buffer (0.4 M) was prepared by dissolving 6 grams of monobasic sodium phosphate in 100 ml of distilled water, 7 grams of dibasic sodium phosphate (0.4 M) in 100 ml of distilled water and adjusting the pH of the dibasic solution to 7.4 with the monobasic solution. Sodium azide (0.02 grams) was added per 100 ml volume to inhibit bacterial growth. The BSA solution was prepared as follows: 400 mg of Type V BSA (bovine serum albumin) was added for each ml of sodium phosphate buffer (above). A 400 mM glucose solution was prepared by dissolving 7.2 grams of dextrose in 100 ml of sodium phosphate buffer (above). The BSA and glucose solutions were mixed 1:1 and incubated at 37° C. for 12 weeks. The pH of the incubation mixture was monitored weekly and adjusted to pH 7.4 if necessary. After 12 weeks, the AGE-BSA solution was dialyzed against PBS for 48 hours with four buffer changes, each at a 1:500 ratio of solution to dialysis buffer. Protein concentration was determined by the micro-Lowry method. The AGE-BSA stock solution was aliquoted and stored at −20° C. […] Working solutions for crosslinking and breaking studies were prepared as follows. Test compounds were dissolved in PBS and the pH was adjusted to pH 7.4 if necessary. AGE-BSA stock solution was diluted in PBS to measure maximum crosslinking and in the inhibitor solution for testing inhibitory activity of compounds. The concentration of AGE-BSA necessary to achieve the optimum sensitivity was determined by initial titration of each lot of AGE-BSA. • 3. Wash buffer (“PBS-Tween”) was, prepared as follows. PBS was prepared by dissolving the following salts in one liter of distilled water: NaCl, 8 grams; KC1, 0.2 gram, KH2PO4. […] Tween-20 was added to a final concentration of 0.05% (vol/vol). • 4. Substrates for detection of secondary antibody binding were prepared by diluting the HRP substrate buffer 1:10 in distilled water and mixing with ABTS chromogen 1:50 just prior to use. Assay Procedures • 1. Biocoat plates were blocked with 300 μl of “Superbloc”. Plates were blocked for one hour at room temperature and were washed with PBS-Tween three times with the Dynatech platewasher before addition of test reagents. • 2. Each experiment was set up in the following manner. The first three wells of the Biocoat plate were used for the reagent blank.

[2] = system: cross-linking of glycated bovine serum albumin (AGE-BSA) to rat tail tendon collagen; test: Cross-linking Inhibition Assay; details: for IC50: inhibition of AGE-BSA cross-linking to collagen-coated plate
Experimental: The following method was used to evaluate the ability of the compounds of the present invention to inhibit the cross-linking of glycated bovine serum albumin (AGE-BSA) to the rat tail tendon collagen-coated 96-well plate.
The blocking solution was removed from the wells by, washing the plate twice with PBS-'Tween 20 solution (0.05% Tween 20) using a NUNq-multiprobe or Dynatech ELISA-plate washer. Cross-linking of AGE-BSA (1 to 10 mg per well depending on the batch of AGE-BSA) to rat tail tendon collagen coated plate was performed with and without the testing ‘compound dissolved in PBS buffer at pH 7.4 at the desired concentrations by the, addition of 50 μl each of the AGE-BSA diluted in PBS or in the solution of test compound at 37° C. for 4 hours. Unbrowned BSA in PBS buffer with or without testing compound were added to the separate wells as the blanks. The un-cross-linked AGE-BSA was then removed by washing the wells three times with PBS-Tween buffer. The amount of AGE-BSA cross-linked to the tail tendon collagen-coated plate was then quantitated using a polyclonal antibody raised against AGE-RNase. After a one-hour incubation period, AGE antibody was removed by washing 4 times with PBS-Tween.
The bound AGE antibody was then detected with the addition of horseradish peroxidase-conjugated secondary antibody—goat anti-rabbit immunoglobulin and incubation for 30 minutes. […] The reaction was allowed for an additional 15 minutes and the absorbance was read at 410 nm in a Dynatech plate reader.

[3] = detection with anti-AGE antibody, read-out: IC50 (mM) Anti-AGE
[4] = detection with anti-BSA antibody, read-out: IC50 (mM) Anti-BSA

COC(=O)C[n+]1csc(C)c1.[Br-] [3-(2-methoxy-2-oxoethyl)-5-methyl-thiazolium bromide]
Breaking Anti-AGE ([1]; at 30 mM): 72% | Breaking Anti-BSA ([1]; at 30 mM): 27% | IC50 [2]: 3.2 mM

C#CC[n+]1cscc1C.[Br-]
melting point: 213 to 215 °C

Cc1sc[n+](CC(=O)c2cc(C(C)(C)C)c(O)c(C(C)(C)C)c2)c1C (as salt: bromide) [3-(2-(3′,5′-di-tert-butyl-4′-hydroxypheny].)-2-oxoethyl]-4,5-dimethyl-thiazolium bromide]
melting point: 243 to 244 °C (dec.)

Cc1sc[n+](CC(N)=O)c1C.[Br-] [3-(2-amino-2-oxoethyl)-4,5-dimethyl-thiazolium bromide]
Breaking Anti-AGE ([1]; at 30 mM): 61% | Breaking Anti-BSA ([1]; at 30 mM): 16% | IC50 [2]: 9.9 mM

Cc1csc[n+]1CC(=O)c1ccccc1.[Br-] [3-(2-phenyl-2-oxoethyl)-4-methylthiazolium bromide]
Breaking Anti-AGE ([1]; at 30 mM): 68% | Breaking Anti-BSA ([1]; at 30 mM): 66% | IC50 [1, 3]: 0.23 mM | IC50 [1, 4]: 0.3 mM | IC50 [2]: 5.6 mM

C#CC[n+]1csc(C)c1.[Br-]
melting point: 127 to 129 °C

Cc1c[n+](CC(=O)c2cc(C(C)(C)C)c(O)c(C(C)(C)C)c2)cs1 [3-[2-(3′,5′-di-tert-butyl-4′-hydroxyphenyl)-2-oxoethyl)-5-methyl-thiazolium bromide]
Breaking Anti-AGE ([1]; at 1 mM): 65% | Breaking Anti-AGE ([1]; at 10 mM): 48% | Breaking Anti-BSA ([1]; at 1 mM): 69% | Breaking Anti-BSA ([1]; at 10 mM): 49% | IC50 [1, 3]: 3 mM | IC50 [2]: 0.78 mM

Cc1csc[n+]1CC(N)=O.[Br-] [3-(2-amino-2-oxoethyl)-4-methyl-thiazolium bromide]
Breaking Anti-AGE ([1]; at 30 mM): 89% | Breaking Anti-BSA ([1]; at 30 mM): 44% | IC50 [1, 3]: 4.7 mM | IC50 [1, 4]: 38.6 mM | IC50 [2]: 0.7 mM

Nc1sc2ccccc2[n+]1N [2,3-diaminio-benzothiazolium mesitylenesulfonate]
Breaking Anti-AGE ([1]; at 30 mM): 87% | Breaking Anti-BSA ([1]; at 30 mM): 54% | IC50 [2]: 0.0749 mM

Cn1cc[n+](CC(=O)c2cc(C(C)(C)C)c(O)c(C(C)(C)C)c2)c1 [1-methyl-3-(2-(3′,5′-di-tert-butyl-4′-hydroxyphenyl)-2-oxoethyl]-imidazolium bromide]
Breaking Anti-AGE ([1]; at 10 mM): 56% | Breaking Anti-BSA ([1]; at 10 mM): 38% | IC50 [2]: 4.5 mM

Cc1sc[n+](CC(=O)c2ccccc2)c1C.[Br-] [3-(2-phenyl-2-oxoethyl)-4,5-dimethylthiazolium bromide]
Breaking Anti-AGE ([1]; at 30 mM): 56%/ND (30) | Relative Cross-link Inhibition (at 10 mM) [2]: 37%

Cc1c(CCO)sc[n+]1CC(=O)Nc1c(C(C)C)cccc1C(C)C.[Br-] [3-(2-(2′,6′-Diisopropylanilino)-2-oxoethyl]-4-methyl-5-(2′-hydroxyethyl)-thiazolium bromide]
Breaking Anti-AGE ([1]; at 10 mM): 31% | Breaking Anti-BSA ([1]; at 10 mM): 48% | Relative Cross-link Inhibition (at 10 mM) [2]: 19%

COC(=O)C[n+]1ccsc1.[Br-] [3-(2-Methoxy-2-oxoethyl)-thiazolium bromide]
Breaking Anti-AGE ([1]; at 30 mM): 38% | Breaking Anti-BSA ([1]; at 30 mM): 41% | IC50 [2]: 0.25 mM

Cc1c(CCO)sc[n+]1CC(=O)c1ccc2c(c1)OCCO2.[Br-] [3 (2-(1′,4′-benzodioxan-6-yl)-2-oxoethyl]-4-methyl-5-(2′-hydroxyethyl)-thiazolium bromide]
Breaking Anti-AGE ([1]; at 3 mM): 11% | Breaking Anti-BSA ([1]; at 3 mM): 21% | Relative Cross-link Inhibition (at 10 mM) [2]: 13%

Cc1c(CCO)sc[n+]1CC(=O)c1ccc(Br)cc1 [3-(2-(41-bromophenyl]-2-oxoethyl)-4-methyl-5-(2-hydroxyethyl)thiazolium bromide]
IC50 [2]: 2.95 mM

Cc1sc[n+](CC(=O)c2ccc(Br)cc2)c1C [3-(2-(4-bromophenyl]-2-oxoethyl)-4,5-dimethylthiazolium bromide]
IC50 [2]: 2.92 mM

COC(=O)c1ccc(NC(=O)C[n+]2csc(CCO)c2C)cc1O (as salt: bromide) [3-(2-(4′-carbmethoxy-3′-hydroxyanilino)-2-oxoethyl]-4-methyl-5-(2′-hydroxyethyl)-thiazolium bromide]
melting point: 222 to 223 °C

COC(=O)c1ccc(NC(=O)C[n+]2csc(CCO)c2C)cc1O [3-(2-(4′-carbmethoxy-3′-hydroxyanilino)-2-oxoethyl]-4-methyl-5-(2′-hydroxyethyl)-thiazolium bromide]
Breaking Anti-AGE ([1]; at 10 mM): 24% | Breaking Anti-BSA ([1]; at 10 mM): 18% | IC50 [2]: 1.76 mM

NC(=O)C[n+]1csc2ccccc21.[Br-] [3-(2-amino-2-oxoethyl)-benzothiazolium bromide]
Breaking Anti-AGE ([1]; concentration not given): 77% | Breaking Anti-BSA ([1]; concentration not given): 65% | IC50 [1, 3]: 0.4 mM | IC50 [1, 4]: 0.52 mM | IC50 [2]: 0.02 mM

C#CC[n+]1ccsc1.[Br-]
melting point: 64 to 66 °C

Cc1c(CCO)sc[n+]1CC(=O)C(C)(C)C.[Br-]
melting point: 186 to 187 °C

C=Cc1sc[n+](CC(=O)c2cc(C(C)(C)C)c(O)c(C(C)(C)C)c2)c1C (as salt: bromide) [3-(2-(3′,5′-tert-butyl-4′-hydroxyphenyl)-2-oxoethyl)-4-methyl-5-vinyl-thiazolium bromide]
melting point: 208 to 209 °C

Cc1sc[n+](CC(=O)c2cc(C(C)(C)C)c(O)c(C(C)(C)C)c2)c1C [3-(2-(3′,5′-di-tert-butyl-4′-hydroxypheny].)-2-oxoethyl]-4,5-dimethyl-thiazolium bromide]
IC50 [2]: 0.16 mM

C#CC[n+]1csc(CCO)c1C.[Br-]
melting point: 132 to 134 °C

CCOC(=O)c1ccc(NC(=O)C[n+]2csc(CCO)c2C)cc1.[Br-] [3-(2-4′-carbethoxyanilino)-2-oxoethyl]-4-methyl-5-(2′-hydroxyethyl)-thiazolium bromide]
Breaking Anti-AGE ([1]; at 10 mM): 48% | Breaking Anti-BSA ([1]; at 10 mM): 57% | Relative Cross-link Inhibition [2]: 8.8% (1 mm)

CCN(CC)c1ccc(C(=O)C[n+]2csc(CCO)c2C)cc1 [3-(2-4′-diethylaminophenyl)-2-oxoethyl]-4-qj. methyl-5-(2′-hydroxyethyl)-thiazolinium bromide]
IC50 [2]: 2.8 mM

Cc1c(CCOCc2c(Cl)cccc2Cl)sc[n+]1N.Cc1cc(C)c(S(=O)(=O)[O-])c(C)c1 [3-amino-4-methyl-5-(2(2′,6′-dichlorobenzyloxy)ethyl]-thiazolium mesitylenesulfonate]
Breaking Anti-AGE ([1]; at 10 mM): 31% | Breaking Anti-BSA ([1]; at 10 mM): 54% | Relative Cross-link Inhibition ([2]; 3 mM): 26.5% (3 mm)

Cc1c[n+](CC(=O)c2cc(C(C)(C)C)c(O)c(C(C)(C)C)c2)cs1 (as salt: bromide) [3-[2-(3′,5′-di-tert-butyl-4′-hydroxyphenyl)-2-oxoethyl)-5-methyl-thiazolium bromide]
melting point: 210 to 211 °C

Cc1c(CCO)sc[n+]1CC(=O)c1ccccc1.[Br-] [3-(2-phenyl-2-oxoethyl)-4-methyl-5-(2-hydroxyethyl)-thiazolium bromide]
Breaking Anti-AGE ([1]; at 30 mM): 67% | Breaking Anti-BSA ([1]; at 30 mM): 13% | IC50 [1, 3]: 14.3 mM | IC50 [2]: > 10 mM

Cc1c(CCO)sc[n+]1CC(N)=O.[Br-] [3-(2-amino-2-oxoethyl)-4-methyl-5-(2-hydroxyethyl) thiazolium bromide]
Breaking Anti-AGE ([1]; concentration not given): 65% | Breaking Anti-BSA ([1]; concentration not given): 57% | IC50 [1, 3]: 0.012 mM | IC50 [1, 4]: 0.12 mM | IC50 [2]: 1.42 mM

COC(=O)C[n+]1csc2ccccc21.[Br-] [3-(2-methoxy-2-oxoethyl)-benzothiazolium bromide]
Breaking Anti-AGE ([1]; at 30 mM): 66% | Breaking Anti-BSA ([1]; at 30 mM): 37% | IC50 [1, 3]: 1.2 mM | IC50 [1, 4]: 25.9 mM | IC50 [2]: > 10 mM
